In ChEMBL document CHEMBL1143824, “National survey on the susceptibility of Bacteroides fragilis group: report and analysis of trends in the United States from 1997 to 2004” (2007):
In brackets after ≈: the same amount, converted by molar mass.

Assays:
Type in all cases: functional
[1] = test system: Bacteroides stercoris; assay: Antimicrobial activity against Bacteroides stercoris assessed as percent resistant isolates
[2] = test system: Bacteroides fragilis; assay: Antimicrobial activity against Bacteroides fragilis isolates by agar dilution method
[3] = test system: Parabacteroides distasonis; assay: Antimicrobial activity against Bacteroides distasonis isolates by agar dilution method
[4] = test system: Bacteroides ovatus; assay: Antimicrobial activity against Bacteroides ovatus isolates by agar dilution method
[5] = test system: Bacteroides thetaiotaomicron; assay: Antimicrobial activity against Bacteroides thetaiotaomicron isolates by agar dilution method
[6] = test system: Bacteroides uniformis; assay: Antimicrobial activity against Bacteroides uniformis isolates by agar dilution method
[7] = test system: Phocaeicola vulgatus; assay: Antimicrobial activity against Bacteroides vulgatus isolates by agar dilution method
[8] = test system: Bacteroides caccae; assay: Antimicrobial activity against Bacteroides caccae isolates by agar dilution method
[9] = test system: Bacteroides eggerthii; assay: Antimicrobial activity against Bacteroides eggerthii isolates by agar dilution method
[10] = test system: Bacteroides stercoris; assay: Antimicrobial activity against Bacteroides stercoris isolates by agar dilution method
[11] = test system: Parabacteroides merdae; assay: Antimicrobial activity against Bacteroides merdae isolates by agar dilution method
[12] = test system: Bacteroides fragilis; assay: Antimicrobial activity against Bacteroides fragilis assessed as percent resistant isolates
[13] = test system: Parabacteroides distasonis; assay: Antimicrobial activity against Bacteroides distasonis assessed as percent resistant isolates
[14] = test system: Bacteroides ovatus; assay: Antimicrobial activity against Bacteroides ovatus assessed as percent resistant isolates
[15] = test system: Bacteroides thetaiotaomicron; assay: Antimicrobial activity against Bacteroides thetaiotaomicron assessed as percent resistant isolates
[16] = test system: Bacteroides uniformis; assay: Antimicrobial activity against Bacteroides uniformis assessed as percent resistant isolates
[17] = test system: Phocaeicola vulgatus; assay: Antimicrobial activity against Bacteroides vulgatus assessed as percent resistant isolates
[18] = test system: Bacteroides caccae; assay: Antimicrobial activity against Bacteroides caccae assessed as percent resistant isolates
[19] = test system: Bacteroides eggerthii; assay: Antimicrobial activity against Bacteroides eggerthii assessed as percent resistant isolates
[20] = test system: Parabacteroides merdae; assay: Antimicrobial activity against Bacteroides merdae assessed as percent resistant isolates

SMILES | Activity [1] [%] | MIC [2] [µg/mL] | MIC90 [2] [µg/mL] | MIC90 [3] [µg/mL] | MIC [5] [µg/mL] | MIC90 [5] [µg/mL] | MIC [6] [µg/mL] | MIC90 [6] [µg/mL] | MIC [7] [µg/mL] | MIC90 [7] [µg/mL] | MIC [8] [µg/mL] | MIC90 [8] [µg/mL] | MIC [9] [µg/mL] | MIC90 [9] [µg/mL] | MIC [10] [µg/mL] | MIC90 [10] [µg/mL] | MIC [11] [µg/mL] | MIC90 [11] [µg/mL] | Activity [12] [%] | Activity [13] [%] | further results
COc1c(N2C[C@@H]3CCCN[C@@H]3C2)c(F)cc2c(=O)c(C(=O)O)cn(C3CC3)c12 [MOXIFLOXACIN] | 36.4 | 1.83 (≈ 4.56 µM) | 8 (≈ 19.9 µM) | 16 (≈ 39.9 µM) | 3.71 (≈ 9.24 µM) | 32 (≈ 79.7 µM) | 5.57 (≈ 13.9 µM) | 32 (≈ 79.7 µM) | 7.92 (≈ 19.7 µM) | 64 (≈ 159 µM) | 3.85 (≈ 9.59 µM) | 32 (≈ 79.7 µM) | 3.85 (≈ 9.59 µM) | 32 (≈ 79.7 µM) | 3.85 (≈ 9.59 µM) | 32 (≈ 79.7 µM) | 3.85 (≈ 9.59 µM) | 32 (≈ 79.7 µM) | 27.3 | 29.2 | MIC [3]: 2.32 µg/mL (≈ 5.78 µM); MIC [4]: 5.49 µg/mL (≈ 13.7 µM); MIC90 [4]: 32 µg/mL (≈ 79.7 µM); Activity [14]: 38.3%; Activity [15]: 26.3%; Activity [16]: 38.6%; Activity [17]: 54.7%; Activity [18]: 36.4%; Activity [19]: 36.4%; Activity [20]: 36.4%
C[C@@H](O)[C@H]1C(=O)N2C(C(=O)O)=C(S[C@@H]3CN[C@H](C(=O)N(C)C)C3)[C@H](C)[C@H]12 [MEROPENEM] | 0.5 | 0.38 (≈ 0.991 µM) | 1 (≈ 2.61 µM) | 2 (≈ 5.22 µM) | 0.47 (≈ 1.23 µM) | 1 (≈ 2.61 µM) | 0.41 (≈ 1.07 µM) | 1 (≈ 2.61 µM) | 0.47 (≈ 1.23 µM) | 1 (≈ 2.61 µM) | 0.4 (≈ 1.04 µM) | 1 (≈ 2.61 µM) | 0.4 (≈ 1.04 µM) | 1 (≈ 2.61 µM) | 0.4 (≈ 1.04 µM) | 1 (≈ 2.61 µM) | 0.4 (≈ 1.04 µM) | 1 (≈ 2.61 µM) | 1 | 1.1 | Activity [15]: 0.1%; Activity [16]: 0.5%; Activity [17]: 0%; Activity [18]: 0.5%; Activity [19]: 0.5%; Activity [20]: 0.5%
C[C@@H](O)[C@H]1C(=O)N2C(C(=O)O)=C(SC3CNC(C(=O)Nc4cccc(C(=O)O)c4)C3)[C@H](C)[C@H]12 (single isomer, unassigned) [ERTAPENEM] | 0.5 | 0.79 (≈ 1.66 µM) | 2 (≈ 4.21 µM) | 4 (≈ 8.41 µM) | 1.69 (≈ 3.55 µM) | 4 (≈ 8.41 µM) | 0.88 (≈ 1.85 µM) | 2 (≈ 4.21 µM) | 0.82 (≈ 1.72 µM) | 2 (≈ 4.21 µM) | 1.03 (≈ 2.17 µM) | 4 (≈ 8.41 µM) | 1.03 (≈ 2.17 µM) | 4 (≈ 8.41 µM) | 1.03 (≈ 2.17 µM) | 4 (≈ 8.41 µM) | 1.03 (≈ 2.17 µM) | 4 (≈ 8.41 µM) | 1.4 | 1.5 | MIC [3]: 1.77 µg/mL (≈ 3.72 µM); MIC [4]: 1.58 µg/mL (≈ 3.32 µM); MIC90 [4]: 4 µg/mL (≈ 8.41 µM); Activity [14]: 0.6%; Activity [15]: 0.4%; Activity [16]: 0.5%; Activity [17]: 0.3%; Activity [18]: 0.5%; Activity [19]: 0.5%; Activity [20]: 0.5%
COC1(NC(=O)Cc2cccs2)C(=O)N2C(C(=O)O)=C(COC(N)=O)CS[C@@H]21 (single isomer, unassigned) [CEFOXITIN] | 10.9 | 15.4 (≈ 36.1 µM) | 32 (≈ 74.9 µM) | 128 (≈ 299 µM) | 29.5 (≈ 69 µM) | 64 (≈ 150 µM) | 12.9 (≈ 30.2 µM) | 32 (≈ 74.9 µM) | 10.5 (≈ 24.6 µM) | 32 (≈ 74.9 µM) | 17.6 (≈ 41.2 µM) | 64 (≈ 150 µM) | 17.6 (≈ 41.2 µM) | 64 (≈ 150 µM) | 17.6 (≈ 41.2 µM) | 64 (≈ 150 µM) | 17.6 (≈ 41.2 µM) | 64 (≈ 150 µM) | 5.2 | 29.9 | MIC [3]: 34.2 µg/mL (≈ 80 µM); MIC [4]: 27.2 µg/mL (≈ 63.5 µM); MIC90 [4]: 64 µg/mL (≈ 150 µM); Activity [14]: 17.2%; Activity [15]: 16.8%; Activity [16]: 7.5%; Activity [17]: 0.3%; Activity [18]: 10.9%; Activity [19]: 10.9%; Activity [20]: 10.9%
